In patent publication US20170367330A1, “Method for stimulating induced insect resistance of rice” (ZHENJIANG UNIVERSITY, priority 2015, published 2017):

Key:
Assay type in all cases: in vivo
[1] = system: nymphs of the white-backed planthopper; assay: Spray treatment of rice stems and leaves, survival of white-backed planthopper nymphs
Description: (§1) According to the second preferred embodiment of the present invention, the applied p-Fluorophenoxyacetic acids have concentrations of 20 mg/L and 100 mg/L. The rice is cultivated through the nutrient solution, and planted by each individual rice plant; the p-Fluorophenoxyacetic acid is prepared with water to have a certain concentration (20 mg/L or 100 mg/L), and thereafter stems and leaves of the rice are treated with spraying through a small sprayer; and tap water is adopted as a control group. After drops on the stems and leaves of the rice are totally dry, a special glass cover (with a diameter of 4 cm, a height of 8 cm, and 48 holes having a diameter of 0.8 mm uniformly provided on a wall) is placed on a stem of each individual rice plant, and 15 newly-hatched nymphs of the brown planthopper or the white-backed planthopper are introduced into each glass cover, wherein a top part of each glass cover is sealed by a circular sponge. The experiment is conducted in a phytotron with a temperature of 28±2° C., a humidity of 70-80% and 14 hours of illumination, survival numbers of the nymphs of the brown planthopper and the white-backed planthopper on each plant are recorded daily, and the experiment is repeated for 10 times.

[2] = system: nymphs of the white-backed planthopper; assay: Stomach toxicity in planthopper artificial diet; settings: for survival rate of the nymphs of the white-backed planthopper: artificial diet
Text: In order to exclude possible influences of the p-Fluorophenoxyacetic acid itself on a survival rate of nymphs of the rice planthoppers, the third preferred embodiment of the present invention measures stomach toxicity and contact toxicity of the p-Fluorophenoxyacetic acids having different concentrations on the nymphs of the rice planthoppers. In the experiment for measuring the stomach toxicity of the p-Fluorophenoxyacetic acid on the nymphs of the rice planthoppers, the p-Fluorophenoxyacetic acids, having concentrations of 5 mg/L, 20 mg/L and 50 mg/L, are respectively added into planthopper artificial diets, and another planthopper artificial diet not containing the p-Fluorophenoxyacetic acid is adopted as control. The planthopper artificial diets containing the p-Fluorophenoxyacetic acids of different concentrations are respectively wrapped by a Parafilm sealing film and then placed at two ends (20 μL at one end) of a glass two-way tube having a diameter of 4 cm and a height of 8 cm, and 15 newly-hatched nymphs of the white-backed planthopper are introduced into each tube; wherein the glass two-way tube, in which the planthopper artificial diet not containing the p-Fluorophenoxyacetic acid is placed, is adopted as a control group. All the glass two-way tubes are placed in a phytotron (with a temperature of 28° C. and 12 hours of illumination), the artificial diet in each tube is changed once a day, and the survival number of the nymphs of the white-backed planthopper in each tube is recoded daily. The experiment is repeated for 10 times.

[3] = system: nymphs of the white-backed planthopper; assay: Root absorption treatment of rice, survival of white-backed planthopper nymphs
Description: (§2) According to the first preferred embodiment of the present invention, the applied p-Fluorophenoxyacetic acids have concentrations of 1 mg/L and 10 mg/L. The rice is cultivated through the nutrient solution, and planted by each individual rice plant; the p-Fluorophenoxyacetic acid is added into the nutrient solution until a final concentration is 1 mg/L or 10 mg/L; and the nutrient solution without adding the p-Fluorophenoxyacetic acid is adopted as a control group. After treating with the p-Fluorophenoxyacetic acid for 12 hours, a special glass cover (with a diameter of 4 cm, a height of 8 cm, and 48 holes having a diameter of 0.8 mm uniformly provided on a wall) is placed on a stem of each individual rice plant, and 15 newly-hatched nymphs of the brown planthopper or the white-backed planthopper are introduced into each glass cover, wherein a top part of each glass cover is sealed by a circular sponge. The experiment is conducted in a phytotron with a temperature of 28±2° C., a humidity of 70-80% and 14 hours of illumination, survival numbers of the nymphs of the brown planthopper or the white-backed planthopper on each plant are recorded daily, and the experiment is repeated for 10 times.

[4] = system: Third-instar nymphs of the white-backed planthopper; assay: Contact toxicity, spotting on third-instar nymphs; settings: for survival rates of the nymphs of the planthoppers: spotted 1 μL
Description: In the experiment for measuring the contact toxicity of the p-Fluorophenoxyacetic acid on the nymphs of the rice planthoppers, the p-Fluorophenoxyacetic acids respectively having concentrations of 5 mg/L, 20 mg/L, and 50 mg/L are adopted, and distilled water not containing the p-Fluorophenoxyacetic acid is adopted as a control group. Third-instar nymphs of the white-backed planthopper, being narcotized by carbon dioxide, are spotted with the p-Fluorophenoxyacetic acid having the corresponding concentration or the distilled water (1 μL for each planthopper); after waking up, the planthoppers are fed on rice plants having an age of 30 days, wherein 15 planthoppers are fed on each rice plant; and the rice is placed in a phytotron with a temperature of 28±2° C., a humidity of 70-80% and 14 hours of illumination. The experiment is repeated for 10 times. Survival numbers of the nymphs of the planthoppers are observed and recorded respectively 24 hours and 48 hours after treatment.

[5] = system: contents of 4-hydroxybenzoic acid and γ-aminobutyric acid in the rice; assay: Induced mechanism: contents of defense compounds in rice after root treatment; settings: 5 mg/L in nutrient solution, 72 hours after treating
Description: According to the fourth preferred embodiment of the present invention, the applied p-Fluorophenoxyacetic acid has a concentration of 5 mg/L. The rice is cultivated through the nutrient solution, and planted by each individual rice plant; the p-Fluorophenoxyacetic acid is added into the nutrient solution of the rice until a final concentration is 5 mg/L, and another nutrient solution without adding the p-Fluorophenoxyacetic acid is adopted as a control group. The experiment is repeated for 5 times and conduced in a phytotron with a temperature of 28±2° C., a humidity of 70-80%, and 14 hours of illumination. […] The 4-hydroxybenzoic acid belongs to a phenolic acid defense compound, and the γ-aminobutyric acid belongs to a non-protein amino acid, which have direct toxicity effects on the insect pests and are able to influence a peripheral nervous system of the insects. Treating the rice with the p-Fluorophenoxyacetic acid is able to increase contents of the defense compounds, thereby generating a negative effect on the insect pests and increasing a resistance of the rice against the insect pests.

[6] = system: nymphs of the brown planthopper; assay: Root absorption treatment of rice, survival of brown planthopper nymphs; settings: for survival rate of the brown planthopper: 8th day
Description: as §2

[7] = system: nymphs of the brown planthopper; assay: Spray treatment of rice stems and leaves, survival of brown planthopper nymphs; settings: for survival rate of the brown planthopper: 8th day
Description: as §1

[8] = from the 2nd day after treating, FIG. 2

`O=C(O)COc1ccc(F)cc1` [p-Fluorophenoxyacetic acid] was tested, and the “survival rate of the white-backed planthopper” value ([1]; 20 mg/L, 8th day) was 66.1%, the “survival rate of the white-backed planthopper nymphs” value ([1]; 100 mg/L, 8th day) was 23.2% and the “survival rates of the nymphs of the white-backed planthopper, course” value [1, 8] was “decreased obviously”. The “survival rate of the nymphs of the white-backed planthopper” value ([2]; 5 mg/L, 2nd day) was 85.5%, the “survival rate of the nymphs of the white-backed planthopper” value ([2]; 5 mg/L, 4th day) was 58.6% and the “survival rate of the nymphs of the white-backed planthopper” value ([2]; 20 mg/L, 2nd day) was 87.4%. For the same compound, the “survival rate of the nymphs of the white-backed planthopper” value ([2]; 20 mg/L, 4th day) was 54.3%, the “survival rate of the nymphs of the white-backed planthopper” value ([2]; 50 mg/L, 2nd day) was 81.3% and the “survival rate of the nymphs of the white-backed planthopper” value ([2]; 50 mg/L, 4th day) was 57.6%. The “stomach toxicity on the planthoppers” value ([2]; artificial diet, 5, 20 and 50 mg/L) was “no stomach toxicity”, the “survival rate of the white-backed planthopper” value ([3]; 1 mg/L in nutrient solution, 8th day) was 41.3% and the “survival rate of white-backed planthopper nymphs” value ([3]; 10 mg/L in nutrient solution, 8th day) was 3.1%. The “survival rates of the nymphs of the white-backed planthopper, course” value ([3]; from the 2nd day after treating, FIG. 1) was “decreased obviously”, the “survival rates of the nymphs of the planthoppers” value ([4]; 5 mg/L, 24 hours after treating) was 92.0% and the “survival rates of the nymphs of the planthoppers” value ([4]; 5 mg/L, 48 hours after treating) was 92.0%. For the same compound, the “survival rates of the nymphs of the planthoppers” value ([4]; 20 mg/L, 24 hours after treating) was 93.1%, the “survival rates of the nymphs of the planthoppers” value ([4]; 20 mg/L, 48 hours after treating) was 91.6% and the “survival rates of the nymphs of the planthoppers” value ([4]; 50 mg/L, 24 hours after treating) was 92.0%. The “survival rates of the nymphs of the planthoppers” value ([4]; 50 mg/L, 48 hours after treating) was 90.8%, the “contact toxicity on the planthoppers” value ([4]; spotted 1 μL, 5, 20 and 50 mg/L) was “no contact toxicity” and the “content of the 4-hydroxybenzoic acid of the experimental group versus the control group” value [5] was 2.12 times. For the same compound, the “content of the γ-aminobutyric acid of the experimental group versus the control group” value [5] was 2.86 times, the “survival rate of nymphs of the rice planthoppers, maximum decrease” value ([6]; general statement in the summary, rice planthoppers, concentration not given) was “below 10%” and the “survival rate of the brown planthopper” value ([6]; root absorption, 1 mg/L in nutrient solution) was 35.1%. The “survival rate of the brown planthopper” value ([6]; root absorption, 10 mg/L in nutrient solution) was 1.5%, the “survival rates of the nymphs of the brown planthopper, course” value ([6]; root absorption, from the 2nd day after treating, FIG. 1) was “decreased obviously” and the “survival rate of the brown planthopper” value ([7]; 20 mg/L) was 60.3%. The “survival rate of the brown planthopper” value ([7]; 100 mg/L) was 19.2% and the “survival rates of the nymphs of the brown planthopper, course” value [7, 8] was “decreased obviously”.
